LC retention time data for 90 molecules are collected here from the RepoRT retention time repository.

SMILES strings stand for the structures.

A short description of this data set: Waters ACQUITY UPLC HSS T3, 0.4 mL/min; A: water + 0.1% formic acid; B: acetonitrile + 0.1% formic acid; gradient (min/%B) 0/5 1.5/5 12/95 14/95 14.01/100 17/100. As to conditions: stereoisomer not certain.
`CCCCCON=O`: the LC retention time came out at 1.02 min. For `CC1(COC(=O)c2ccccc2)CCC2(C)CCC3(C)C4=CCC5C(C)(CCC(OC(=O)c6ccc(N)cc6)C5(C)C)C4=CCC3(C)C2C1` (stereo not given), the LC retention time is 10.9 min.

With `Cc1c(C)c(C(=O)C(C)O)n2c1CCC2` (stereo not given), the LC retention time worked out at 4.98 min. With `CC(CCc1ccccc1)NCC(O)c1ccc(O)c(C(N)=O)c1` (stereo not given) the figure was 4.52 min; with `CCCCCC(O)C=CC1=CCC(=O)C1CC=CCCCC(=O)O` (stereo not given), 4.99 min; with `CC(=O)OCC(N)C(=O)O` (stereo not given), 0.786 min. On to `CC1(C)OC2(CO)CCC1CC2OC1OC(CO)C(O)C(O)C1O` (stereo not given), for which the LC retention time was 3.99 min. With `O=C(O)CCCC(O)C=CC=CCCC(O)CC=CCCCCC(O)(O)O` (stereo not given) the figure was 8.55 min; with `Nc1ccnc(=O)[nH]1`, 1.02 min. With `CCC(=O)C1CC(C)C2(CC(=O)C3(C)C4=C(CCC32C)C2(C)C=CC(=O)C(C)(CO)C2CC4)O1` (stereo not given) the figure was 5.53 min.

Take `CNC(C)(C)C(=O)O`: the LC retention time was found to be 1.02 min. With `CC1=CC(c2c(O)c(C(=O)CCc3ccccc3)c(O)c(C3C=C(C)CCC3C(C)C)c2O)C(C(C)C)CC1` (stereo not given) the figure was 11 min; with `O=C(Oc1cc(O)cc(O)c1C(=O)O)c1ccc(O)c(O)c1`, 1.15 min; with `NCCCCCCCCCCCC(=O)O`, 6.54 min. In the case of `CCCCCCC=CC=CCCCCCCCC(=O)OC(COC(=O)CCCCCCCCC(C)C)COP(=O)(O)OCC(O)CO` (stereo not given), the LC retention time amounted to 12.1 min. With `C=CCC=CCC=CCCCCCCCC(C(=O)OC)C(=O)C(=CC(=O)OC)OC` (stereo not given) the figure was 5.18 min; with `CCCCCCCCCCCCCCCCCC(=O)OCC(O)COP(=O)(O)OCC(O)CO` (stereo not given), 5.64 min; with `CC12CCC(O)(CC1OC1OC(CO)C(O)C(O)C1O)C(C)(C)O2` (stereo not given), 3.99 min. In the case of `OC1CC2CC(O)C(C1)N2` (stereo not given), the LC retention time is 0.818 min. As to `COC1CCC(=O)N1` (stereo not given), the LC retention time worked out at 0.851 min. With `C=C(CO)C1CCC(C)(O)C(OC2OC(CO)C(O)C(O)C2O)C1` (stereo not given) the figure was 3.99 min; with `CC(=O)OC(CC(=O)[O-])C[N+](C)(C)C` (stereo not given), 0.839 min. For the molecule `C=CC1(CO)CCC(C(C)(C)OC2OC(CO)C(O)C(O)C2O)O1` (stereo not given), the LC retention time came out at 3.99 min. With `Nc1nc2c(ncn2C2CC(O)C(COP(=O)(O)O)O2)c(=O)[nH]1` (stereo not given) the figure was 0.934 min; with `CCCCCCC=CCCCCCCCC(=O)OC(CO)COP(=O)(O)OCCN` (stereo not given), 4.91 min. With `CCCCCCOC(=O)CC(C)S` (stereo not given) the figure was 0.838 min; with `C=C(C)C1CCC2(C(=O)O)CCC3(C)C(CCC4C5(C)CC(O)C(OC(=O)C=Cc6ccc(O)cc6)C(C)(C)C5CCC43C)C12` (stereo not given), 11 min; with `CCCCC=CCCCCCCCC(=O)OCC(COP(=O)(O)OCC(N)C(=O)O)OC(=O)CCCCCCCCCCC` (stereo not given), 5.43 min. Turning to `CCCCCC=CCC(O)C=CC=CCC=CCCCC(=O)NCCS(=O)(=O)O` (stereo not given), the LC retention time was determined as 4.09 min. Turning to `CCCCCC(O)C=CC=CCC=CCC=CCCCC(=O)NCCS(=O)(=O)O` (stereo not given), the LC retention time turned out to be 4.09 min. Consider `CC(C)(OC1OC(CO)C(O)C(O)C1O)C1CCC(O)(CO)CC1` (stereo not given), for which the LC retention time was 5.08 min. As for `CCCCCC=CCC(O)CC=CC=CC(SCC(N)C(=O)O)C(O)CCCC(=O)O` (stereo not given), the LC retention time was 9.02 min.

As to `C=C1C(=O)OC2C1CCC(=O)CC1(C)CCC(O)OC21` (stereo not given), the LC retention time was 6.31 min.

As to `CCCCCC(=O)CCC1C=CC(=O)C1CC=CCCCC(=O)O` (stereo not given), the LC retention time came out at 4.99 min. `CCCCCCC=CCCCCCCCCCC(=O)OC(CCC(=O)[O-])[N+](C)(C)C` (stereo not given): the LC retention time is 9.56 min. Take `CC(C)N`: the LC retention time was 0.706 min. With `CC(N)C(=O)O` (stereo not given) the figure was 0.806 min; with `CCC=CCC=CCC(O)C=CC=CC=CC(O)CCCC(=O)O` (stereo not given), 4.99 min; with `C[N+](C)(C)CCOP(=O)([O-])O`, 0.761 min. With `CC1CCC2C(C)C3C(CC4C5CC=C6CC(OC7OC(CO)C(O)C(OC8OC(CO)C(O)C(O)C8O)C7O)CCC6(C)C5CCC43C)N2C1` (stereo not given) the figure was 9.86 min; with `CC1CCC2(NC1)OC1CC3C4CC=C5CC(OC6OC(CO)C(OC7OC(C)C(O)C(O)C7O)C(O)C6O)CCC5(C)C4CCC3(C)C1C2C` (stereo not given), 9.86 min.

On to `COc1cc2c(cc1OC)CN(C)CC2`, for which the LC retention time was determined as 4.98 min. For `CC1(C)OC2(C)C(O)CC1CC2OC1OC(CO)C(O)C(O)C1O` (stereo not given), the LC retention time stood at 3.99 min. In the case of `C=C1C(=O)OC2C1CC=C1CC(C)(CCC1OO)C2O` (stereo not given), the LC retention time is 6.31 min. Turning to `CC1OC(CC(=O)O)Cc2c1c(O)c1c(O)c(-c3cc(=O)c4c(=O)c5c(c(=O)c=4c3=O)C(C)OC(CC(=O)O)C5)cc(O)c1c2O` (stereo not given), the LC retention time is 1.05 min.

Consider `CC(=O)C1CCC2C3CCC4CC(=O)CCC4(C)C3CCC12C` (stereo not given), for which the LC retention time is 11.8 min. With `C[N+](C)(C)CCO` the figure was 0.706 min; with `CCO[SiH](CCCSCCC[SiH](OCC)OCC)OCC`, 1.02 min. With `CNc1ccccc1C(=O)OCC(C)C` the figure was 4.98 min; with `CCCCCCCCC=CCCCCCCCC(=O)OC(CC(=O)[O-])C[N+](C)(C)C` (stereo not given), 9.56 min; with `COC(=O)C1(OC(C)=O)CC23CCC4C(C)(O)CCCC4(C)C2CCC1C3` (stereo not given), 5.17 min. With `CC(=O)OCC[N+](C)(C)C` the figure was 0.772 min; with `NCCS(=O)(=O)O`, 0.777 min; with `CC(C)=CCCC(C)(O)C1CCC2(C)C1C(O)CC1C3(C)CCC(OC4OC(COC5OCC(O)C(O)C5O)C(O)C(O)C4O)C(C)(C)C3CCC12C` (stereo not given), 10.8 min.

Regarding `CC(=O)NC(CO)C(=O)O` (stereo not given), the LC retention time is 0.786 min. Take `CCC=CCC=CCC=CCC=CCC=CCC=CCCC(=O)OC(CO)COP(=O)(O)OCCN` (stereo not given): the LC retention time turned out to be 4.65 min. With `CC(C)CC(N)C(=O)NC(CCC(=O)O)C(=O)O` (stereo not given) the figure was 1.05 min; with `CCCCCC=CCC=CCC=CCCCCC(=O)OCC(COP(=O)(O)OCC(O)CO)OC(=O)CCCCCCCCCCCCCCC` (stereo not given), 13.9 min. With `CCCCCCCCCCCCCCCC(=O)OC1C(C)OC(OC2C(OCCCC)OC(CO)C(O)C2O)C(O)C1O` (stereo not given) the figure was 10.4 min; with `CCCCCC1OC(=O)C(C(C)CC)N(C)C(=O)C2CCCN2C(=O)C(C(C)C)OC(=O)C(Cc2ccccc2)N(C)C(=O)C(C(C)C)NC(=O)C1C` (stereo not given), 9.85 min; with `CCCCCCCCCCCCCCCCCCOC(=O)CC(O)(CC(=O)O)C(=O)O` (stereo not given), 10.5 min.

On to `CC1CCC2(C(=O)O)CCC3(C)C(=CCC4C5(C)CC(O)C(OC(=O)C=Cc6ccc(O)cc6)C(C)(C)C5CCC43C)C2C1C` (stereo not given), for which the LC retention time was 11 min. Regarding `CC(=O)c1cnccn1`, the LC retention time is 1.06 min. `CC1(C)CCC2(C(=O)O)CCC3(C)C(=CCC4C5(C)CC(O)C(OC(=O)C=Cc6ccc(O)cc6)C(C)(C)C5CCC43C)C2C1` (stereo not given): the LC retention time worked out at 11 min. For the molecule `Cc1cc(O)c2c(c1O)C(=O)C1=C(C2=O)C(=O)C2C(O)C1C1C(O)CC(=O)C3=C(O)c4c(O)cc(C)c(O)c4C(=O)C321` (stereo not given), the LC retention time came out at 1.11 min. With `CC1=CC(=O)CC(C)(C)C1(O)CCC(C)OC1OC(COC2OCC(O)(CO)C2O)C(O)C(O)C1O` (stereo not given) the figure was 4.44 min. With `C=Cc1c2[nH]c(c1C)Cc1[nH]c(c(CCC(=O)O)c1C)Cc1[nH]c(c(C)c1CCC(=O)O)Cc1[nH]c(c(C)c1C=C)C2` the figure was 4.78 min; with `COc1cc2c(c(OC)c1CC=C(C)C)CC(c1ccc(O)c3c1OC(C)(C)C=C3)CO2` (stereo not given), 4.37 min; with `Nc1ncnc2c1ncn2C1OC(COP(=O)(O)O)C(O)C1O` (stereo not given), 0.934 min. With `CC(NC(=O)C(N)CC(=O)O)NC(=O)N(C)C(C)(C)C` (stereo not given) the figure was 0.829 min; with `CCCCCCC=CCCCCCCCC(=O)OCC(O)COP(=O)(O)OCCN` (stereo not given), 4.91 min; with `CC1CCC2(C(=O)O)CCC3(C)C(=CCC4C5(C)CCC(OC(=O)c6ccccc6)C(C)(C)C5C(=O)CC43C)C2C1C` (stereo not given), 11 min. Take `O=c1[nH]cnc2[nH]ncc12`: the LC retention time is 1.1 min. With `CCCC(=O)OC(CC(=O)[O-])C[N+](C)(C)C` (stereo not given) the figure was 3 min; with `CCC=CCC(O)C(O)C=CC=CC=CC=CC(O)CC=CCCC(=O)O` (stereo not given), 5.01 min. Regarding `CCCCCC=CCC=CCC=CCCCCC(=O)OC(COC(=O)CCCCCCCCCCCCCCC)COP(=O)(O)OCC(O)CO` (stereo not given), the LC retention time turned out to be 13.9 min. With `O=C(O)CCNCC(=O)O` the figure was 0.786 min. With `CN1CC(=O)NC1=N` the figure was 0.794 min.

Consider `Nc1ncnc2c1ncn2C1OC(CO)C(O)C1OP(=O)(O)O` (stereo not given), for which the LC retention time is 0.934 min. Consider `CC(C)OC(=O)C(C(=O)OC(C)C)=C1SCCS1`, for which the LC retention time stood at 1.14 min. Take `C[N+](C)(C)CCCC(=O)[O-]`: the LC retention time came out at 0.772 min. As for `CCCCCCCCCCCCCCCCCC(=O)NC(Cc1ccc(O)cc1)C(=O)O` (stereo not given), the LC retention time came to 9.13 min. With `CC1CCC(C(C)(O)COC2OC(CO)C(O)C(O)C2O)CC1O` (stereo not given) the figure was 5.08 min; with `COc1ccc(COC2OC(CO)C(O)C(O)C2OS(=O)(=O)O)cc1` (stereo not given), 0.842 min; with `COC(=O)C12CCC(C)(C)CC1C1=CCC3C4(C)CCC(OC(=O)C=Cc5ccc(OC)cc5)C(C)(C)C4CCC3(C)C1(C)CC2` (stereo not given), 13.1 min. With `Cc1cc(O)cc(O)c1C(=O)OC1CC2(C)C3CC(C)(C)CC3C=C(C=O)C12` (stereo not given) the figure was 10.6 min. Turning to `CNC(CC(=O)O)C(=O)O` (stereo not given), the LC retention time amounted to 0.786 min. With `CCC(C(=O)CC(C)C1=C(O)C(=O)C2C3CCC4CC(OC5OC(C(=O)O)C(O)C(O)C5O)CCC4(C)C3CCC12C)C(C)C` (stereo not given) the figure was 11 min. With `NCC1CCC(C(=O)O)CC1` (stereo not given) the figure was 0.828 min. With `CCCCN(CCCN(CCCN(CCCN)CCCN)CCCN(CCCN)CCCN)CCCN(CCCN(CCCN)CCCN)CCCN(CCCN)CCCN` the figure was 0.706 min.
